What all share (assay type): biochemical
Assay [1] concerns the target T1, Recombinant human aldo-keto reductase family 1 member C2 (AKR1C2) protein (Homo sapiens, UniProt P52895).
T1 construct: made in house; host or cells: Sf-9 insect cells (baculovirus)
T1 sequence (P52895 1-323): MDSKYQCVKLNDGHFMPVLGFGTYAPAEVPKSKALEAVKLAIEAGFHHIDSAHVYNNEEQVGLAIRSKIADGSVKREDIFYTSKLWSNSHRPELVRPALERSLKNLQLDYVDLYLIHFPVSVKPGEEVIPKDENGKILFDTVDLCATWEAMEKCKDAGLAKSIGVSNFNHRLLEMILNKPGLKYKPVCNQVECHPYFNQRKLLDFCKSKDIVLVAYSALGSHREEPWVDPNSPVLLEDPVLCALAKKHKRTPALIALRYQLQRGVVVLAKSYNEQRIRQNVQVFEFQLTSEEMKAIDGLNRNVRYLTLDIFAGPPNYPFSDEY
Put plainly: Inhibition of the aldo-keto reductase family 1 member C2, 3H-dihydrotestosterone conversion. To be noted: inhibitor at 10 μM. As for the experimental part: Inhibition of the Aldo-Keto Reductase Family 1 Member C2
Recombinant human aldo-keto reductase family 1 member C2 (AKR1C2) protein (GenBank Accession No. NM_001354.6) produced in Sf-9 insect cells with baculovirus was used for screening. Recombinant protein (13.6 nM/0.5 μg/ml) was incubated in 20 mM KH2PO4 pH 7.4, 1 mM EDTA, complete protease inhibitor tablet, 1 mM NADPH with 6.25 nM ^3H-labelled dihydrotestosterone for 45 min at +37° C., in the presence of the potential inhibitor at 10 μM concentration. Inhibitor stock solutions were prepared in DMSO. Final concentration of DMSO was adjusted to 1% in all samples. The enzyme reaction was stopped by addition of 10% trichloroacetic acid (final concentration 1%). Samples were filtrated through […] filtration plate (Merck). Analyses of samples was done with Waters Acquity UPLC H-class equipped with XBridge C18 column and XBridge VanGuard C18 guard column. Acetonitrile: 0.1% formic acid in water (42/58 v/v) with flow of 1.2 ml/min was used for mobile phase. The eluent was mixed with scintillant and the radioactivity was monitored in the eluate by a Scintillation Analyser. The conversion percentage of triated substrate (dihydrotestosterone) to tritiated product (5α-androstane-3α,17β-diol) for each sample was determined by the relative percentages of substrate and product in the chromatogram. The inhibition percentages of samples were calculated using following formula: […]

The target in assay [2] is T2, 17β-Hydroxysteroid Dehydrogenase Type 2 Enzyme (17β-HSD2) (Homo sapiens, UniProt P37059).
T2 construct: made in house; host or cells: Sf-9 insect cells (baculovirus)
T2 sequence (P37059 1-387): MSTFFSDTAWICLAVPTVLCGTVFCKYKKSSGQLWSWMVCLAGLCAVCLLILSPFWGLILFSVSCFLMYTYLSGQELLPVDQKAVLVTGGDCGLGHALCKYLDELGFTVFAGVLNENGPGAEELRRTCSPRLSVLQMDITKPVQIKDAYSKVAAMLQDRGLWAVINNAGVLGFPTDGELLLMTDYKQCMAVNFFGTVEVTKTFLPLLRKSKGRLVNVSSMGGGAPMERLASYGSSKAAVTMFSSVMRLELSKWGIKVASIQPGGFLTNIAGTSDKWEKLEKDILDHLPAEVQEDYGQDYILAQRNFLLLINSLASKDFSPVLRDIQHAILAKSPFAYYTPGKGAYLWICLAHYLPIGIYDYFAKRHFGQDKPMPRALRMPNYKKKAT
Kind of assay: Inhibition of the 17β-hydroxysteroid dehydrogenase type 2 enzyme, 3H-testosterone conversion. The conditions noted are these: inhibitor at 10 μM. As for the experimental part: Inhibition of the 17β-Hydroxysteroid Dehydrogenase Type 2 Enzyme
Recombinant human 173-HSD2 protein (GenBank Accession No. NM_002153.3) produced in Sf-9 insect cells with baculovirus was used for screening.
Recombinant protein (105 nM/4.5 μg/ml) was incubated in 20 mM KH2PO4 pH 8.5, 1 mM EDTA, complete protease inhibitor cocktail, 1 mM NAD with 56.25 nM testosterone (including ^3H-labelled testosterone) for 30 min at RT, in the presence of the potential inhibitor at 10 μM concentration. Inhibitor stock solutions were prepared in DMSO. Final concentration of DMSO was adjusted to 1% in all samples. The enzyme reaction was stopped by addition of 10% trichloroacetic acid (final concentration 1%). Samples were filtrated through […] filtration plate. Analyses of samples was done with Waters Acquity UPLC H-class equipped with XBridge C18 column and XBridge VanGuard C18 guard column. Acetonitrile: 0.1% formic acid in water (42/58 v/v) with flow of 1.2 ml/min was used for mobile phase. The eluent was mixed with scintillant and the radioactivity was monitored in the eluate by a Scintillation Analyser. The conversion percentage of tritiated substrate (testosterone) to product tritiated (androstenedione) for each sample was determined by the relative percentages of substrate and product in the chromatogram. The inhibition percentages of samples were calculated using following formula: […]

Assay [3] has as its target T3, Recombinant human AKR1C3 (17β-HSD5) protein (Homo sapiens, UniProt P42330).
T3 construct: made in house; host or cells: E. coli
T3 sequence (P42330 1-323): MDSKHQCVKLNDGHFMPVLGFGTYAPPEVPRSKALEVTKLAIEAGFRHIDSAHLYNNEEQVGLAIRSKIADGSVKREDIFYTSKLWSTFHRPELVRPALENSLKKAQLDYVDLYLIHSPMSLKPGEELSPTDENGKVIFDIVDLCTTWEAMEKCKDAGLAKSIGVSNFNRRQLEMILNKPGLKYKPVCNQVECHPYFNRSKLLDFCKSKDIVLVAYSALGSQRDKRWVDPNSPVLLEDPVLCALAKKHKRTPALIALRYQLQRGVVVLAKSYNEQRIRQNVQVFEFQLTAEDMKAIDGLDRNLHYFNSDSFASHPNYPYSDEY
Kind of assay: Inhibition of AKR1C3 (17β-hydroxysteroid dehydrogenase type 5) enzyme, fluorescence assay. The conditions noted are these: inhibitor at 500 nM. As for the experimental part:
Inhibition of AKR1C3 (17β-Hydroxysteroid Dehydrogenase Type 5) Enzyme
Recombinant human AKR1C3 (17β-HSD5) protein (GenBank Accession No. NM_003739.6) produced in E. coli was used for screening. Recombinant protein (27 nM/1 μg/ml) was incubated in 20 mM KH2PO4, 1 mM EDTA, complete protease inhibitor cocktail, pH 7.4 with 1 μM 9-acetyl-2,3,6,7-tetrahydro-1H,5H,11H-pyrano[2,3-f]pyrido[3,2,1-ij]quinolin-11-one and 1 mM NADPH for 60 to 120 min at RT, in the presence of the potential inhibitor at 500 nM concentration. Inhibitor stock solutions were prepared in DMSO. Final concentration of DMSO was adjusted to 1% in all samples. The samples were analysed by fluorescent measurement with Tecan Spark microplate reader at wavelengths 420 nm for excitation and 510 nm for emission. Samples were evaluated against standards of 9-(1-hydroxyethyl)-2,3,6,7-tetrahydro-1H,5H,11H-pyrano[2,3-f]pyrido[3,2,1-ij]quinolin-11-one at concentrations 1 μM-10 nM. Background fluorescence was reduced from all the samples and standards. The concentrations of formed product were calculated from the standard curve with Tecan Spark Magellan software. The formed product concentrations were used to calculate conversion percentages. The inhibition percentages for the samples were calculated from the conversion percentages.
Inhibition percentages of samples were calculated using following formula: […]

Consider `N#CC(=C1CCN(C(=O)N2CCc3nocc3C2)CC1)c1ccc(F)cc1` [Compound 12, 2-(4-fluorophenyl)-2-(1-(4,5,6,7-tetrahydroisoxazolo[4,3-c]pyridine-5-carbonyl)piperidin-4-ylidene)acetonitrile], for which the inhibition – broadly, the change of the read-out against control, counted positive when it falls – at 10 µM in assay [1] came to 19%; in assay [2], 8%. Also, the inhibition at 0.5 µM in assay [3] amounted to 99%.

With `N#CC(=C1CCN(C(=O)N2CCn3nncc3C2)CC1)c1ccc(F)cc1` [Compound 13, 2-(4-fluorophenyl)-2-(1-(4,5,6,7-tetrahydro-[1,2,3]triazolo[1,5-a]pyrazine-5-carbonyl)piperidin-4-ylidene)acetonitrile], the inhibition at 10 µM in assay [1] is 19%; in assay [2], 7%. In assay [3], the inhibition at 0.5 µM was 99%.

For `CN(C(=O)N1CCC(=C(C#N)c2ccc(F)cc2)CC1)C1CCOCC1` [Compound 14, 4-(cyano(4-fluorophenyl)methylene)-N-methyl-N-(tetrahydro-2H-pyran-4-yl)piperidine-1-carboxamide], the figures for the inhibition at 10 µM in assay [1] and in assay [2] were 11% and 3%, respectively. Besides, the inhibition at 0.5 µM in assay [3] turned out to be 94%.

`N#CC(=C1CCN(C(=O)N2C3CCC2COC3)CC1)c1ccc(F)cc1` [Compound 15, 2-(1-(3-oxa-8-azabicyclo[3.2.1]octane-8-carbonyl)piperidin-4-ylidene)-2-(4-fluorophenyl)acetonitrile]: the inhibition at 10 µM in assay [1] is 6%; in assay [2] it was 11%. For the same compound, the inhibition at 0.5 µM in assay [3] came out at 97%.

Turning to `CN(C)C(=O)N1CCC(=C(C#N)c2ccc(F)cc2)CC1` [Compound 16, 4-(cyano(4-fluorophenyl)methylene)-N,N-dimethylpiperidine-1-carboxamide], the results for the inhibition at 10 µM in assay [1] and in assay [2] were 8% and 14%, respectively. Moreover, the inhibition at 0.5 µM in assay [3] turned out to be 97%.

For the compound `COC1CCN(C(=O)N2CCC(=C(C#N)c3cccc(Cl)c3)CC2)CC1` [Compound 17, 2-(3-chlorophenyl)-2-(1-(4-methoxypiperidine-1-carbonyl)piperidin-4-ylidene)acetonitrile], the figures for the inhibition at 10 µM in assay [1] and in assay [2] were 8% and 31%, respectively. In addition, the inhibition at 0.5 µM in assay [3] came to 98%.

`N#CC(=C1CCN(C(=O)N2CCC(O)CC2)CC1)c1ccc(Cl)cc1` [Compound 18, 2-(4-chlorophenyl)-2-(1-(4-hydroxypiperidine-1-carbonyl)piperidin-4-ylidene)acetonitrile]: the values for the inhibition at 10 µM in assay [1] and in assay [2] were 7% and 11%, respectively. Besides, in assay [3], the inhibition at 0.5 µM worked out at 99%.

For the compound `N#CC(=C1CCN(C(=O)N2CCC(CO)CC2)CC1)c1ccc(F)cc1` [Compound 19, 2-(4-fluorophenyl)-2-(1-(4-(hydroxymethyl)piperidine-1-carbonyl)piperidin-4-ylidene)acetonitrile], the inhibition at 10 µM was 12% in assay [1] and 19% in assay [2]. For the same compound, the inhibition at 0.5 µM in assay [3] was 99%.

With `CCOC1CCN(C(=O)N2CCC(=C(C#N)c3ccc(F)cc3)CC2)CC1` [Compound 20, 2-(1-(4-ethoxypiperidine-1-carbonyl)piperidin-4-ylidene)-2-(4-fluorophenyl)acetonitrile], the values for the inhibition at 10 µM in assay [1] and in assay [2] were 2% and 9%, respectively. Also, the inhibition at 0.5 µM in assay [3] came out at 97%.

Regarding `CC(O)C1CCN(C(=O)N2CCC(=C(C#N)c3ccc(F)cc3)CC2)CC1` (stereo not drawn) [Compound 21, 2-(4-fluorophenyl)-2-(1-(4-(1-hydroxyethyl)piperidine-1-carbonyl)piperidin-4-ylidene)acetonitrile], the results for the inhibition at 10 µM in assay [1] and in assay [2] were 9% and 20%, respectively. Further, the inhibition at 0.5 µM in assay [3] was determined as 95%.

In the case of `COC1CN(C(=O)N2CCC(=C(C#N)c3ccc(F)cc3)CC2)C1` [Compound 22, 2-(4-fluorophenyl)-2-(1-(3-methoxyazetidine-1-carbonyl)piperidin-4-ylidene)acetonitrile], the inhibition at 10 µM in assay [1] was 9%; in assay [2], 7%. Moreover, in assay [3], the inhibition at 0.5 µM was determined as 88%.

With `N#CC(=C1CCN(C(=O)N2CC(C#N)C2)CC1)c1ccc(F)cc1` [Compound 23, 1-(4-(cyano(4-fluorophenyl)methylene)piperidine-1-carbonyl)azetidine-3-carbonitrile], the inhibition at 10 µM in assay [1] came to 13%; in assay [2], 1%. Also, in assay [3], the inhibition at 0.5 µM was found to be 96%.

Consider `N#CC(=C1CCN(C(=O)N2CCc3[nH]cnc3C2)CC1)c1ccc(F)cc1` [Compound 24, 2-(4-fluorophenyl)-2-(1-(4,5,6,7-tetrahydro-1H-imidazo[4,5-c]pyridine-5-carbonyl)piperidin-4-ylidene)acetonitrile], for which the inhibition at 10 µM in assay [1] was 8%; in assay [2], 11%. For the same compound, in assay [3], the inhibition at 0.5 µM is 96%.

For `N#CC(=C1CCN(C(=O)N2CCc3[nH]ncc3C2)CC1)c1ccc(F)cc1` [Compound 25, 2-(4-fluorophenyl)-2-(1-(4,5,6,7-tetrahydro-1H-pyrazolo[4,3-c]pyridine-5-carbonyl)piperidin-4-ylidene)acetonitrile], the results for the inhibition at 10 µM in assay [1] and in assay [2] were 28% and 27%, respectively. Also, the inhibition at 0.5 µM in assay [3] came out at 98%.

Turning to `N#CC(=C1CCN(C(=O)N2CCn3ncnc3C2)CC1)c1ccc(F)cc1` [Compound 26, 2-(4-fluorophenyl)-2-(1-(5,6,7,8-tetrahydro-[1,2,4]triazolo[1,5-a]pyrazine-7-carbonyl)piperidin-4-ylidene)acetonitrile], the inhibition at 10 µM in assay [1] came to 6%; in assay [2], 13%. In assay [3], the inhibition at 0.5 µM stood at 97%.

Values taken from US12637471B2, “Heterocyclic compounds, compositions, methods of preparation and uses thereof” (Organon R&D Finland Ltd, priority 2021, dated 2026).
